Experimental data reported in ChEMBL document CHEMBL2034891, “Discovery, design and synthesis of Y-shaped peroxisome proliferator-activated receptor δ agonists as potent anti-obesity agents in vivo” (Eur J Med Chem, 2012).

Assays:
[1] = target: T1, Peroxisome proliferator-activated receptor delta (Homo sapiens, UniProt Q03181); assay: Transactivation activity at human PPARdelta expressed in african green monkey CV1 cells after 24 hrs by luciferase reporter gene assay; format: cell-based, CV-1
T1 sequence (Q03181 whole entry): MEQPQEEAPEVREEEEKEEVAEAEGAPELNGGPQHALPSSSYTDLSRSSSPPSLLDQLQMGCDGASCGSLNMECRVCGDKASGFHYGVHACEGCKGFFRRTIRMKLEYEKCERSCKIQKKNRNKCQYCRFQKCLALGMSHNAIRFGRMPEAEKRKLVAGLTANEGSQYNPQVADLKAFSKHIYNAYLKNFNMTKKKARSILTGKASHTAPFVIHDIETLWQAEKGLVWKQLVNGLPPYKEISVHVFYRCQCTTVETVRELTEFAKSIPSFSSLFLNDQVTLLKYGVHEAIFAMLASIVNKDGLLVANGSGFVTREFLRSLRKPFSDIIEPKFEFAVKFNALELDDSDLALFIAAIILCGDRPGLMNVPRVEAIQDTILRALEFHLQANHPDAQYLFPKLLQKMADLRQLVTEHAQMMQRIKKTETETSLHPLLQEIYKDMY

[2] = target: T2, Peroxisome proliferator-activated receptor gamma (Homo sapiens, UniProt P37231); assay: Transactivation activity at human PPARgamma expressed in african green monkey CV1 cells after 24 hrs by luciferase reporter gene assay; format: cell-based, CV-1
T2 sequence (P37231 whole entry): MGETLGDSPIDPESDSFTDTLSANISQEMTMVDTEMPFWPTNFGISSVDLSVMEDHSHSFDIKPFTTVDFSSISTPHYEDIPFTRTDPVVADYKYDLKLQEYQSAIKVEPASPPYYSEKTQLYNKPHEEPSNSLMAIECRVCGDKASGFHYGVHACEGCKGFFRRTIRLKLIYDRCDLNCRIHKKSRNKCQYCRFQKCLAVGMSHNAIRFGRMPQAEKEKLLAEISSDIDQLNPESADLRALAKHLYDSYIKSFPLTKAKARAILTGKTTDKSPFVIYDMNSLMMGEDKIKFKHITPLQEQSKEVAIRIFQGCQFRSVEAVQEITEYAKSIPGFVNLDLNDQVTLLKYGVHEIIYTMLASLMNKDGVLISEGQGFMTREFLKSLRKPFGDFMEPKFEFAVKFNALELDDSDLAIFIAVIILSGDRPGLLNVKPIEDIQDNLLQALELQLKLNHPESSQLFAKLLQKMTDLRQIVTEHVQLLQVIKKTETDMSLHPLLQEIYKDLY

[3] = target: T3, Peroxisome proliferator-activated receptor alpha (Homo sapiens, UniProt Q07869); assay: Transactivation activity at human PPARalpha expressed in african green monkey CV1 cells after 24 hrs by luciferase reporter gene assay; format: cell-based, CV-1
T3 sequence (Q07869 whole entry): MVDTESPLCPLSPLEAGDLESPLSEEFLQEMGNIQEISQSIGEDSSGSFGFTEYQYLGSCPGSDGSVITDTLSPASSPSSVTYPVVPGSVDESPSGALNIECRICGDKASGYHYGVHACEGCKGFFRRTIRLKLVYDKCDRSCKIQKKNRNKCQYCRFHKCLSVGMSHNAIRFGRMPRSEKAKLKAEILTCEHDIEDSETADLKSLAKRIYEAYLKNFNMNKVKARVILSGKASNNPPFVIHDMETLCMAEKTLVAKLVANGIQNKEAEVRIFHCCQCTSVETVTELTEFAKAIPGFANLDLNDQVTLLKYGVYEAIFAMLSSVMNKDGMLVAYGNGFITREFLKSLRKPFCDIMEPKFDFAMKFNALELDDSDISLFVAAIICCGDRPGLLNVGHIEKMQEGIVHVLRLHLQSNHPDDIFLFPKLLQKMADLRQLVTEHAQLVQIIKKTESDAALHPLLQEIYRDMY

Homo sapiens = organism: Homo sapiens; assay: Selectivity ratio of EC50 for human PPARalpha to EC50 for human PPARdelta
[4] = target: T1, Peroxisome proliferator-activated receptor delta; assay: Binding affinity at human GST-tagged PPARdelta ligand binding domain after 1 hr by time-resolved FRET analysis

EC50 [1] [µM] | EC50 [2] [µM] | EC50 [3] [µM] | Ratio EC50 (Homo sapiens) | EC50 [4] [µM] | Structure (SMILES)
0.49 | > 10 | > 10 |  |  | Cc1cc(SC(Cc2cccc3ccccc23)c2sc(-c3ccc(C(F)(F)F)cc3)nc2C)ccc1OCC(=O)O (configuration not stated)
0.0167 | > 10 | > 10 | 10000 |  | Cc1cc(SC(Cc2cc(F)ccc2F)c2sc(-c3ccc(C(F)(F)F)cc3)nc2C)ccc1OCC(=O)O (configuration not stated)
0.0048 | > 10 | > 10 |  |  | COc1ccc(CC(Sc2ccc(OCC(=O)O)c(C)c2)c2sc(-c3ccc(C(F)(F)F)cc3)nc2C)cc1 (configuration not stated)
 |  |  |  | 0.0079 | CCCc1c(OCCCSc2ccc(CC(=O)O)cc2Cl)ccc2c(C(F)(F)F)noc12
 | > 10 | > 10 |  |  | Cc1cc(SC(CCCCCCCc2ccccc2)c2sc(-c3ccc(C(F)(F)F)cc3)nc2C)ccc1OCC(=O)O (configuration not stated)
0.0011 | > 10 | 0.592 |  |  | Cc1cc(SC(CC(C)C)c2sc(-c3ccc(C(F)(F)F)cc3)nc2C)ccc1OCC(=O)O (configuration not stated)
0.523 | > 10 | > 10 |  |  | Cc1cc(SC(c2sc(-c3ccc(C(F)(F)F)cc3)nc2C)C(c2ccccc2)c2ccccc2)ccc1OCC(=O)O (configuration not stated)
 | > 10 | > 10 |  |  | Cc1cc(SC(CCCCc2ccccc2)c2sc(-c3ccc(C(F)(F)F)cc3)nc2C)ccc1OCC(=O)O (configuration not stated)
0.0094 | > 10 | > 10 |  |  | Cc1cc(SC(Cc2ccc(C(F)(F)F)cc2)c2sc(-c3ccc(C(F)(F)F)cc3)nc2C)ccc1OCC(=O)O (configuration not stated)
 | > 10 | > 10 |  |  | Cc1cc(SC(CCCc2ccccc2)c2sc(-c3ccc(C(F)(F)F)cc3)nc2C)ccc1OCC(=O)O (configuration not stated)
0.0012 | > 10 | > 10 | 10000 |  | Cc1cc(SC(Cc2c(F)cccc2Cl)c2sc(-c3ccc(C(F)(F)F)cc3)nc2C)ccc1OCC(=O)O (configuration not stated)
0.0044 | > 10 | > 10 |  |  | Cc1cc(SC(Cc2ccc(-c3ccccc3)cc2)c2sc(-c3ccc(C(F)(F)F)cc3)nc2C)ccc1OCC(=O)O (configuration not stated)
0.0081 | > 10 | > 10 | 10000 |  | Cc1cc(SC(Cc2c(F)c(F)c(F)c(F)c2F)c2sc(-c3ccc(C(F)(F)F)cc3)nc2C)ccc1OCC(=O)O (configuration not stated)
